# Legend:
# KRAS G12C = KRAS G12C (Homo sapiens, UniProt P01116, G12C); experiment: GDP-GTP exchange assay (KRAS_G12C exchange assay); assay type: biochemical; details: bodipy-loaded KRAS G12C, SOS1, GppNHp; 2 hours pre-incubation with inhibitor; read-out: G12C_exchange
# Method: The inhibitor potency of the exemplified compounds was determined in a fluorescence based guanine nucleotide exchange assay, which measures the exchange of bodipy-GDP (fluorescently labeled GDP) for GppNHp (Non-hydrolyzable GTP analog) to generate the active state of KRAS in the presence of SOS1 (guanine nucleotide exchange factor). Inhibitors were serially diluted in DMSO and a volume of 0.1 μL was transferred to the wells of a black low volume 384-well plate. 5 μL/well volume of bodipy-loaded KRAS G12C diluted to 5 nM in assay buffer (25 mM Hepes pH 7.5, 50 mM NaCl, 10 mM MgCl2 and 0.01% Brij-35) was added to the plate and pre-incubated with inhibitor for 2 hours at ambient temperature. Appropriate controls (enzyme with no inhibitor or with a G12C inhibitor (AMG-510)) were included on the plate. The exchange was initiated by the addition of a 5 μL/well volume containing 1 mM GppNHp and 300 nM SOS1 in assay buffer. The 10 μL/well reaction concentration of the bodipy-loaded KRAS G12C, GppNHp, and SOS1 were 2.5 nM, 500 uM, and 150 nM, respectively. The reaction plates were incubated at ambient temperature for 2 hours, a time estimated for complete GDP-GTP exchange in the absence of inhibitor. For the KRAS G12D and G12V mutants, similar guanine nucleotide exchange assays were used with 2.5 nM as final concentration for the bodipy loaded KRAS proteins and with 4 hours and 3 hours incubation after adding GppNHp-SOS1 mixture for G12D and G12V respectively. A cyclic peptide described to selectively bind G12D mutant (Sakamoto et al., BBRC 484.3 (2017), 605-611) or internal compounds with confirmed binding were used as positive controls in the assay plates. Fluorescence intensities were measured on a PheraStar plate reader instrument (BMG Labtech) with excitation at 485 nm and emission at 520 nm.
# Either GraphPad prism or Genedata Screener SmartFit was used to analyze the data. The IC50 values were derived by fitting the data to a four parameter logistic equation producing a sigmoidal dose-response curve with a variable Hill coefficient.
# [1] = system: pERK1/2 in MIA PaCa-2 cells (KRAS G12C); experiment: Whole blood pERK1/2 HTRF assay (KRAS_G12C WB pERK assay); assay type: cell-based; details: Homo sapiens, compound in whole blood, 4 hours, read-out: G12C_WB_pERK
# Method: MIA PaCa-2 cells (KRAS G12C; ATCC® CRL-1420), HPAF-II (KRAS G12D; ATCC® CRL-1997) and YAPC (KRAS G12V; DSMZ ACC382) are maintained in RPMI 1640 with 10% FBS (Gibco/Life Technologies). For MIA PaCa-2 assay, cells are seeded into 96 well tissue culture plates (Corning #3596) at 25000 cells per well in 100 uL media and cultured for 2 days at 37° C., 5% CO2 before the assay. For HPAF-II and YAPC assay, cells are seeded in 96 well tissue culture plates at 50000 cells per well in 100 uL media and cultured for 1 day before the assay. Whole Blood are added to the 1 uL dots of compounds (prepared in DMSO) in 96 well plates and mixed gently by pipetting up and down so that the concentration of the compound in blood is 1× of desired concentration, in 0.5% DMSO. The media is aspirated from the cells and 50 uL per well of whole blood with test compound is added and incubated for 4 hours for MIA PaCa and YAPC assay; or 2 hours for HPAF-II assay, respectively at 37° C., 5% CO2. After dumping the blood, the plates are gently washed twice by adding PBS to the side of the wells and dumping the PBS from the plate onto a paper towel, tapping the plate to drain well. Fifty ul/well of 1×lysis buffer #1 (Cisbio) with blocking reagent (Cisbio) and Benzonase nuclease (Sigma Cat #E1014-5KU, 1: 10000 final concentration) is then added and incubated at room temperature for 30 minutes with shaking (250 rpm). Following lysis, 16 uL of lysate is transferred into 384-well Greiner small volume white plate using an Assist Plus (Integra Biosciences, NH). Four uL of 1:1 mixture of anti Phospho-ERK 1/2 d2 and anti Phospho-ERK 1/2 Cryptate (Cisbio) is added to the wells using the Assist Plus and incubated at room temperature overnight in the dark. Plates are read on the Pherastar plate reader at 665 nm and 620 nm wavelengths. Data are analyzed in Genedata Screener using SmartFit for IC50 values.
# [2] = system: pERK in KRAS G12C cells (MIA PaCa-2, NCI-H358); experiment: Cellular pERK HTRF assay (KRAS_G12C pERK assay); assay type: cell-based; details: 4 hours incubation, read-out: G12C_pERK
# Method: MIA PaCa-2 (KRAS G12C; ATCC® CRL-1420), NCI-H358 (KRAS G12C; ATCC® CRL-5807), A427 (KRAS G12D; ATCC® HTB53), HPAFII (KRAS G12D; ATCC® CRL-1997), YAPC (KRAS G12V; DSMZ ACC382), SW480 (KRAS G12V; ATCC® CRL-228) and NCI-H838 (KRAS WT; ATCC® CRL-5844) cells are purchased from ATCC and maintained in RPMI 1640 media supplemented with 10% FBS (Gibco/Life Technologies). The cells are plated at 5000 cells per well (8 uL) into Greiner 384-well low volume, flat-bottom, and tissue culture treated white plates and incubated overnight at […], 5% CO2. The next morning, test compound stock solutions are diluted in media at 3× the final concentration and 4 uL are added to the cells, with a final concentration of 0.1% of DMSO. The cells are incubated with the test compounds for 4 hours (G12C and G12V) or 2 hrs (G12D) at 37° C., 5% CO2. Four uL of 4×lysis buffer with blocking reagent (Cisbio) are added to each well and plates are rotated gently (300 rpm) for 30 minutes at room temperature. Four uL per well of Cisbio anti Phospho-ERK 1/2 d2 is mixed with anti Phospho-ERK 1/2 Cryptate (1:1), and added to each well, incubated overnight in the dark at room temperature. Plates are read on the Pherastar plate reader at 665 nm and 620 nm wavelengths. Data are analyzed in Genedata Screener using SmartFit for IC50 values.
# [3] = Human whole blood stability; assay type: in vitro ADME; details: percent remaining, 1 μM, 37° C.
# Method: The whole blood stability of the exemplified compounds was determined by LC-MS/MS. The 96-Well Flexi-Tier™ Block (Analytical Sales & Services, Inc, Flanders, NJ) was used for the incubation plate containing 1.0 mL glass vials with 0.5 mL of blood per vial (pooled gender, human whole blood sourced from BIOIVT, Hicksville, NY or similar). Blood was pre-warmed in water bath to 37° C. for 30 minutes. 96-deep well analysis plate was prepared with the addition of 100 μL ultrapure water/well. 50 μL chilled ultrapure water/well was added to 96-deep well sample collection plate and covered with a sealing mat. 1 μL of 0.5 mM compound working solution (DMSO:water) was added to the blood in incubation plate to reach final concentrations of 1 μM, mixed by pipetting thoroughly and 50 μL was transferred 50 into the T=0 wells of the sample collection plate. Blood was allowed to sit in the water for 2 minutes and then 400 μL stop solution/well was added (acetonitrile containing an internal standard). The incubation plate was placed in the Incu-Shaker CO2 Mini incubator (Benchmark Scientific, Sayreville, NJ) at 37° C. with shaking at 150 rpm. At 1, 2 and 4-hr, the blood samples were mixed thoroughly by pipetting and 50 μL is transferred into the corresponding wells of the sample collection plate. Blood was allowed to sit in the water for 2 minutes and then 400 μL of stop solution/well was added. The collection plate was sealed and vortexed at 1700 rpm for 3 minutes (VX-2500 Multi-Tube Vortexer, VWR International, Radnor, PA), and samples were then centrifuged in the collection plate at 3500 rpm for 10 minutes (Allegra X-14R Centrifuge Beckman Coulter, Indianapolis, IN). 100 μL of supernatant/well was transferred from the sample collection plate into the corresponding wells of the analysis plate. The final plate was vortexed at 1700 rpm for 1 minute and analyze samples by LC-MS/MS. The peak area ratio of the 1, 2, and 4 hr samples relative to T=0 was used to determine the percent remaining. The natural log of the percent remaining versus time was used determine a slope to calculate the compounds half-life in blood (t1/2=0.693/slope).
# KRAS G12C, sequence (P01116 1-188 isoform P01116-2 G12C): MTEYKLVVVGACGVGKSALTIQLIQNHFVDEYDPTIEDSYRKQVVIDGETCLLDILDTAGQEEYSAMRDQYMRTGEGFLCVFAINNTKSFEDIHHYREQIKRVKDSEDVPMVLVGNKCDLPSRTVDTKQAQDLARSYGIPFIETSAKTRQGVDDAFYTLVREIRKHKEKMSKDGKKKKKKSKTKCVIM
Compound,IC50 (KRAS G12C) [nM],IC50 [1] [nM],IC50 [2] [nM],Human whole blood stability at 4 hr [3]
"C=C(F)C(=O)N1CC[C@H](n2ncc3c(O[C@@H](C)[C@@H]4CCCN4C)nc4c(F)c(-c5nccc6cccc(C#N)c56)c(Cl)cc4c32)C[C@H]1CC#N (single isomer, unassigned) [Example 3b]",100 to 1000,,,
"COC/C=C/C(=O)N1CC[C@H](n2ncc3c(O[C@@H](C)[C@@H]4CCCN4C)nc4c(F)c(-c5nccc6cccc(C#N)c56)c(Cl)cc4c32)C[C@H]1CC#N [Example 2a, 1-(8-chloro-1-((2S,4S)-2-(cyanomethyl)-1-((E)-4-methoxybut-2-enoyl)piperidin-4-yl)-6-fluoro-4-((S)-1-((S)-1-methylpyrrolidin-2-yl)ethoxy)-1H-pyrazolo[4,3-c]quinolin-7-yl)isoquinoline-8-carbonitrile]",≤ 100,≤ 100,≤ 100,††† (WBS >90%)
"CC#CC(=O)N1CC[C@H](n2ncc3c(O[C@@H](C)[C@@H]4CCCN4C)nc4c(F)c(-c5nccc6cccc(C#N)c56)c(Cl)cc4c32)C[C@H]1CC#N (single isomer, unassigned) [Example 1a]",≤ 100,≤ 100,≤ 100,††† (WBS >90%)
"C=C(F)C(=O)N1CC[C@H](n2ncc3c(O[C@@H](C)[C@@H]4CCCN4C)nc4c(F)c(-c5cccc6cccc(C#N)c56)c(Cl)cc4c32)C[C@H]1CC#N (single isomer, unassigned) [Example 5a]",100 to 1000,,,
"C=C(F)C(=O)N1CC[C@H](n2ncc3c(N4CC(N(C)CC)C4)nc4c(F)c(-c5c(C)c(C)cc6[nH]ncc56)c(Cl)cc4c32)C[C@H]1CC#N (single isomer, unassigned) [Example 4b]",1000 to 5000,,,
"COC/C=C/C(=O)N1CC[C@H](n2ncc3c(O[C@@H](C)[C@@H]4CCCN4C)nc4c(F)c(-c5cccc6cccc(C#N)c56)c(Cl)cc4c32)C[C@H]1CC#N [Example 6b, 8-(8-chloro-1-((2S,4S)-2-(cyanomethyl)-1-((E)-4-methoxybut-2-enoyl)piperidin-4-yl)-6-fluoro-4-((S)-1-((S)-1-methylpyrrolidin-2-yl)ethoxy)-1H-pyrazolo[4,3-c]quinolin-7-yl)-1-naphthonitrile]",,≤ 100,≤ 100,††† (WBS >90%)

# Further lines, results first:
IC50 (KRAS G12C) [nM],IC50 [1] [nM],IC50 [2] [nM],Human whole blood stability at 4 hr [3],Compound
≤ 100,,,,"COC/C=C/C(=O)N1CC[C@H](n2ncc3c(O[C@@H](C)[C@@H]4CCCN4C)nc4c(F)c(-c5cccc6cccc(C#N)c56)c(Cl)cc4c32)C[C@H]1CC#N [Example 6a, 8-(8-chloro-1-((2S,4S)-2-(cyanomethyl)-1-((E)-4-methoxybut-2-enoyl)piperidin-4-yl)-6-fluoro-4-((S)-1-((S)-1-methylpyrrolidin-2-yl)ethoxy)-1H-pyrazolo[4,3-c]quinolin-7-yl)-1-naphthonitrile]"
≤ 100,≤ 100,≤ 100,,"C=C(F)C(=O)N1CC[C@H](n2ncc3c(O[C@@H](C)[C@@H]4CCCN4C)nc4c(F)c(-c5cccc6cccc(C#N)c56)c(Cl)cc4c32)C[C@H]1CC#N (single isomer, unassigned) [Example 5b]"
≤ 100,,,,"CC#CC(=O)N1CC[C@H](n2ncc3c(O[C@@H](C)[C@@H]4CCCN4C)nc4c(F)c(-c5nccc6cccc(C#N)c56)c(Cl)cc4c32)C[C@H]1CC#N (single isomer, unassigned) [Example 1b]"
≤ 100,≤ 100,≤ 100,††† (WBS >90%),"C=C(F)C(=O)N1CC[C@H](n2ncc3c(O[C@@H](C)[C@@H]4CCCN4C)nc4c(F)c(-c5nccc6cccc(C#N)c56)c(Cl)cc4c32)C[C@H]1CC#N (single isomer, unassigned) [Example 3a]"
≤ 100,≤ 100,≤ 100,†† (WBS >70% but ≤90%),"CC#CC(=O)N1CC[C@H](n2ncc3c(O[C@@H](C)[C@@H]4CCCN4C)nc4c(F)c(-c5cccc6cccc(C#N)c56)c(C)cc4c32)C[C@H]1CC#N (single isomer, unassigned) [Example 7]"
≤ 100,≤ 100,≤ 100,†† (WBS >70% but ≤90%),"C=C(F)C(=O)N1CC[C@H](n2ncc3c(N4CC(N(C)CC)C4)nc4c(F)c(-c5c(C)c(C)cc6[nH]ncc56)c(Cl)cc4c32)C[C@H]1CC#N (single isomer, unassigned) [Example 4a]"

# From patent publication US12030884B2, “Pyrazoloquinoline KRAS inhibitors” (INCYTE CORPORATION, priority 2021, dated 2024)
